Assays:
Matr = molecular target: T1, Matr (Homo sapiens, UniProt P09237); assay: In vitro metalloprotease inhibition assay (thiopeptide/DACM fluorescence); format: biochemical; conditions: read-out: Ki or IC50 Matr
T1 sequence (P09237 95-267): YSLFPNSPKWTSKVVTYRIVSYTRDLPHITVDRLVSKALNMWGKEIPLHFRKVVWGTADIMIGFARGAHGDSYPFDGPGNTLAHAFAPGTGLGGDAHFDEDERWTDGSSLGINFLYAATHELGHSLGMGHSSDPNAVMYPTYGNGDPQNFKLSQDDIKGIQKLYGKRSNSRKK

cartilage explants = assay: Release of 35S-labelled glycosaminoglycans from cartilage explants; format: cell-based; conditions: Bos taurus; inhibition of rhIL-1-alpha induced release of 35S-labelled GAG's, bovine knee joint cartilage explants
Method: This assay determines if the compounds of formula (I) inhibit the release of ^35S-labelled glycosaminoglycans (GAG's) from cartilage explants.
Small cartilage explants (3 mm diameter) were prepared from freshly sacrificed bovine knee joints and labeled with ^35SO4. ^35S-labelled glycosaminoglycans (GAG's) are released into the culture medium in response to the addition of rhIL-1-alpha, which induces the expression of chondrocyte matrix metalloproteases (MMP's), including stromelysin and collagenase. The percent inhibition of labeled GAG's was corrected for spontaneous release in the absence of rhlL-1-alpha. Results for each group represent the mean ± the S.E.M. for five explants.

HNG = HNG (Homo sapiens, UniProt P14780); assay: In vitro metalloprotease inhibition assay (thiopeptide/DACM fluorescence); format: biochemical; conditions: read-out: Ki or IC50 HNG
Sequence of HNG (P14780 107-707 limits assumed): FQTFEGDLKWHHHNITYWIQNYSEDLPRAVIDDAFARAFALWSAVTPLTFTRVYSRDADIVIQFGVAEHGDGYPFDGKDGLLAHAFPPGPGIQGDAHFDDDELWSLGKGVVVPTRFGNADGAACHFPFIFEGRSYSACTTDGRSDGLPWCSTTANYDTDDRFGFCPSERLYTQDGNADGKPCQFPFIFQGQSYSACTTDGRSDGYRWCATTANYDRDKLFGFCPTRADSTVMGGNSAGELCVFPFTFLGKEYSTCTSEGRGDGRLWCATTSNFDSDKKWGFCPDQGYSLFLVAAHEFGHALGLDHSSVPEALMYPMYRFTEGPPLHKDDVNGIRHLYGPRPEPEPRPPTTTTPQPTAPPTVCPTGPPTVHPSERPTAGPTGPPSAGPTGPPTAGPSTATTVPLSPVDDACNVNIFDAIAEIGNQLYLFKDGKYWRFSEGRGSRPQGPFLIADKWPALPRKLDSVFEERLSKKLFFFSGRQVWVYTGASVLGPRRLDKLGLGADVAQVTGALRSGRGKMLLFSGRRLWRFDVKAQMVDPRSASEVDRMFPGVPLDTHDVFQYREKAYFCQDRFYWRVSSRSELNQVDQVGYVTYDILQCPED
Method: (§1) Compounds of formula (I) were dissolved in DMSO and added to a cuvette containing 0.2 µg Type I or 0.03 µg Type IV collagenase in 1 ml TC buffer (20mM Tris, 5mM CaCl2, pH 7.5) (2% DMSO final concentration). The concentrations of the compounds of formula (I) were chosen such that there was at least one data point for every 20% change in activity. Enzyme and compounds were permitted to pre-incubate 3 min at 37°C. To initiate the reaction, N-(7-dimethylamino-4-methyl)coumarinyl ("DACM") (Sigma) and thiopeptide (Ac-Pro-Leu-Gly-S-"Leu"-Leu-Gly-OEt, Bachem Bioscience Inc.) were added to 20 uM each. […] Each data point is the average of duplicate experiments. At least six data points, expressed as change in fluorescence per minute versus compound concentration were analyzed using the IC50 fit in the program, Enzfitter.

SLN = SLN (Homo sapiens, UniProt P08254); assay: as above; format: biochemical
Sequence of SLN (P08254 100-477): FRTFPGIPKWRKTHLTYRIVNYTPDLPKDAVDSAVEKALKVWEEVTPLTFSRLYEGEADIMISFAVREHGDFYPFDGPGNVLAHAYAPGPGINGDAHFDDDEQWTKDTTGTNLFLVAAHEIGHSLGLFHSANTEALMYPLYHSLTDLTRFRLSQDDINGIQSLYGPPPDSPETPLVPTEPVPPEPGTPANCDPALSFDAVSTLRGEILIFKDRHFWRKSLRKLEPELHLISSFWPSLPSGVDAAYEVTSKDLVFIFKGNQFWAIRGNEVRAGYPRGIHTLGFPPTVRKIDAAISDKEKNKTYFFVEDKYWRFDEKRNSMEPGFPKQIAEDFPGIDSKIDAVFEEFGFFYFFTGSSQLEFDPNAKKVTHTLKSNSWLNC

HNC = HNC (Homo sapiens, UniProt P22894); assay: as above; format: biochemical
Sequence of HNC (P22894 101-467): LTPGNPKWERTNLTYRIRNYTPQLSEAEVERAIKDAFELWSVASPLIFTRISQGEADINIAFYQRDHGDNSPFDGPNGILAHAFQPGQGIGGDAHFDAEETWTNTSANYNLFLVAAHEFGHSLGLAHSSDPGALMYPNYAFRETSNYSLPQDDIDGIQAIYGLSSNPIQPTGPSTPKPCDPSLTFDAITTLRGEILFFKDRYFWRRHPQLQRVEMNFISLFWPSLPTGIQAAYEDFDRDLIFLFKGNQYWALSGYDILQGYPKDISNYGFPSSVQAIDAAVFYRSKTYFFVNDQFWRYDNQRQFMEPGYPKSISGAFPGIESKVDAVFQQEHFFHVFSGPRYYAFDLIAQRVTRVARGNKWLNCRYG

fetal rat long bones = assay: Fetal rat long bone model, bovine PTH induced bone resorption (45Ca release); format: cell-based; conditions: 144 h
Text: An in vitro fetal rat long bone model was used to study the anti-bone resorptive effect of the compounds of formula (I). Bovine PTH was used to induce bone resorption in vitro. The bone resorptive effects were expressed by the amounts of ^45Ca released from the ^45Ca pre-labelled fetal rat long bones into the culture medium. The inhibitory effect of the compounds of formula (I) against bovine PTH induced bone resorption was expressed as mean percent inhibition ± sem.
^45Ca-prelabelled fetal rat long bones (from forearms) were dissected and cultured in Linbro dishes at 37°C overnight BGJb medium, supplemented with 1mg/ml BSA. There were five pairs of bones in each group. The compounds of formula (I) were dissolved in ethanol first, then diluted to various concentrations and added simultaneously with Bovine PTH (1-34) at 1x10^8M on Day 1. […] The assay was terminated on Day 6 with one media change on Day 3.
At the end of each medium change, the ^45Ca present in the culture medium was counted. The remaining bones were digested with 0.1N HCl and the ^45Ca presented in the bone digest was also counted. The results are expressed as % of the total ^45Ca released from each pair of bones. Bovine PTH at 1x10^-8M induces bone resorption to the maximum level which is set as 100% and this concentration was used as standard. […]

HFC = molecular target: T2, HFC (Homo sapiens, UniProt P03956); assay: In vitro collagenase inhibition assay (thiopeptide/DACM fluorescence); format: biochemical
T2 construct: endogenous in cells; host or cells: GM0010A fibroblasts stimulated with PMA; enzyme purified from serum-free culture medium
T2 sequence (P03956 100-469): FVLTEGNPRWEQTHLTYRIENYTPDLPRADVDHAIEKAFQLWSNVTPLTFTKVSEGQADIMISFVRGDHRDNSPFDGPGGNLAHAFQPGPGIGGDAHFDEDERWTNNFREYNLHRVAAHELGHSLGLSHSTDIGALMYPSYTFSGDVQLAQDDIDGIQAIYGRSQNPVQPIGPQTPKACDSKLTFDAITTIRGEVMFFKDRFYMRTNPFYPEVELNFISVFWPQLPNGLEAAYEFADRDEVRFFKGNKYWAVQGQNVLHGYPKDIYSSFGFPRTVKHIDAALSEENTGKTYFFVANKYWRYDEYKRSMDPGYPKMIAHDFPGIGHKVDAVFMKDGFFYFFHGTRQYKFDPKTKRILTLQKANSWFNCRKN
Method: as §1

IC50 (Matr) | SMILES | IC50 (cartilage explants) | IC50 (HNG) | IC50 (SLN) | IC50 (HNC) | IC50 (fetal rat long bones) | IC50 (HFC)
3 nM | CC(C)CC(CC(=O)NO)C(=O)N[C@H]1Cc2cn(c3ccccc23)CCCCCCCNC1=O (stereo partly drawn) [Compound 2, (11S)-N-hydroxy-5-methyl-3-(10-oxo-1,9-diazatricyclo-[11.6.1.0^14,19]eicosa-13(20),14(19),15,17-tetraen-11-ylcarbamoyl)hexanamide] | 40 µM | 0.2 nM | – | – | – | –
– | CC(C)CC(CP(=O)(O)CSc1ccc2ccccc2n1)C(=O)N[C@H]1Cc2cn(c3ccccc23)CCCCCCNC1=O (stereo partly drawn) [Compound 4, (10S)-[4-methyl-2-(9-oxo-1,8-diazatricyclo[10.6.1.0^13,18]nonadeca-12(19),13(18),14,16-tetraen-10-ylcarbamoyl)pentyl] (quinolin-2-ylthiomethyl)phosphinic acid] | 50 µM | 14 nM | > 800 nM | 4 nM | 5 µM | 5 nM
